# Like-named read-outs stand apart in the source and are kept apart here.
# Tested on: 280 human cancer cell lines
# Test: OncoPanel cell proliferation assay (10-day)
# Assay type: cell-based
# Settings: Homo sapiens; for GI50: read-out: Cell Count GI50; for IC50: read-out: Cell Count IC50; for EC50: read-out: Cell Count EC50
# [1] = KHOS-240S, Soft Tissue - Osteosarcoma
# [2] = ME-180, ME-180, Female GU - Ovary
# [3] = MG-63, MG-63, Soft Tissue - Osteosarcoma
# [4] = MHH-PREB-1, MHH-PREB-1, Leukemia
# [5] = MIA PaCa-2, Mia PaCa-2, Pancreas
# [6] = MS751, MS751, Female GU - Ovary
# [7] = Malme-3M, MALME3M, Skin (Melanoma)
smiles,measurement,setting,value
"CC(C)=CCC[C@H](C)[C@@H]1CC[C@@H](C)c2c1cc(C)c(O)c2O [Compound 4, 7,8-dihydroxyserrulat-14-ene]",GI50,[1],4.96 µM
same,IC50,[1],4.96 µM
same,EC50,"KLE, Female GU - Uterus",18.2 µM
same,GI50,"KLE, Female GU - Uterus",16.6 µM
same,IC50,"KLE, Female GU - Uterus",18.2 µM
same,EC50,"KPL-1, KPL-1, Breast",4.18 µM
same,GI50,"KPL-1, KPL-1, Breast",4.13 µM
same,IC50,"KPL-1, KPL-1, Breast",4.18 µM
same,EC50,"KU812, KU812, Leukemia",9.5 µM
same,GI50,"KU812, KU812, Leukemia",9.13 µM
same,IC50,"KU812, KU812, Leukemia",9.5 µM
same,EC50,"L-428, L-428, Lymphoma",2.07 µM
same,GI50,"L-428, L-428, Lymphoma",2.06 µM
same,IC50,"L-428, L-428, Lymphoma",2.07 µM
same,EC50,"LNCaP, Prostate",11.5 µM
same,GI50,"LNCaP, Prostate",12.4 µM
same,IC50,"LNCaP, Prostate",12.9 µM
same,EC50,"LS-123, LS123, Colon",12 µM
same,GI50,"LS-123, LS123, Colon",10.7 µM
same,IC50,"LS-123, LS123, Colon",12 µM
same,EC50,"LS-411N, LS411N, Colon",23.1 µM
same,GI50,"LS-411N, LS411N, Colon",22.6 µM
same,IC50,"LS-411N, LS411N, Colon",23.1 µM
same,EC50,"LS-1034, LS1034, Colon",23.6 µM
same,GI50,"LS-1034, LS1034, Colon",23.5 µM
same,IC50,"LS-1034, LS1034, Colon",23.6 µM
same,EC50,"M059J, CNS - Glioma",13 µM
same,GI50,"M059J, CNS - Glioma",12.9 µM
same,IC50,"M059J, CNS - Glioma",13 µM
same,EC50,"MC116, MC116, Lymphoma",12.5 µM
same,GI50,"MC116, MC116, Lymphoma",12.4 µM
same,IC50,"MC116, MC116, Lymphoma",12.5 µM
same,EC50,"MC-IXC, CNS - Neuroblastoma",6.88 µM
same,GI50,"MC-IXC, CNS - Neuroblastoma",6.88 µM
same,IC50,"MC-IXC, CNS - Neuroblastoma",6.88 µM
same,EC50,"MCF7, MCF7, Breast",12.1 µM
same,GI50,"MCF7, MCF7, Breast",11.9 µM
same,IC50,"MCF7, MCF7, Breast",12.1 µM
same,EC50,"MDA-MB-231, MDA MB 231, Breast",11.4 µM
same,GI50,"MDA-MB-231, MDA MB 231, Breast",11.3 µM
same,IC50,"MDA-MB-231, MDA MB 231, Breast",11.4 µM
same,EC50,"MDA-MB-436, MDA-MB-436, Breast",10.3 µM
same,GI50,"MDA-MB-436, MDA-MB-436, Breast",10.2 µM
same,IC50,"MDA-MB-436, MDA-MB-436, Breast",10.3 µM
same,EC50,"MDA-MB-453, MDA MB 453, Breast",3.76 µM
same,GI50,"MDA-MB-453, MDA MB 453, Breast",3.68 µM
same,IC50,"MDA-MB-453, MDA MB 453, Breast",3.76 µM
same,EC50,"MDA-MB-468, MDA MB 468, Breast",7.41 µM
same,GI50,"MDA-MB-468, MDA MB 468, Breast",7.34 µM
same,IC50,"MDA-MB-468, MDA MB 468, Breast",7.43 µM
same,EC50,[2],25.3 µM
same,GI50,[2],25.2 µM
same,IC50,[2],25.3 µM
same,EC50,"MEG-01, MEG01, Leukemia",8.39 µM
same,GI50,"MEG-01, MEG01, Leukemia",8.37 µM
same,IC50,"MEG-01, MEG01, Leukemia",8.39 µM
same,EC50,"MES-SA, Soft Tissue - Sarcoma",6.49 µM
same,GI50,"MES-SA, Soft Tissue - Sarcoma",6.44 µM
same,IC50,"MES-SA, Soft Tissue - Sarcoma",6.49 µM
same,EC50,[3],11.2 µM
same,GI50,[3],11.1 µM
same,IC50,[3],11.2 µM
same,EC50,[4],5.71 µM
same,GI50,[4],5.71 µM
same,IC50,[4],5.71 µM
same,EC50,[5],11 µM
same,GI50,[5],11 µM
same,IC50,[5],11 µM
same,EC50,"MOLT-3, MOLT-3, Leukemia",3.15 µM
same,GI50,"MOLT-3, MOLT-3, Leukemia",3.13 µM
same,IC50,"MOLT-3, MOLT-3, Leukemia",3.15 µM
same,EC50,"MOLT-16, MOLT-16, Leukemia",4.02 µM
same,GI50,"MOLT-16, MOLT-16, Leukemia",4.01 µM
same,IC50,"MOLT-16, MOLT-16, Leukemia",4.02 µM
same,EC50,[6],12.1 µM
same,GI50,[6],12 µM
same,IC50,[6],12.1 µM
same,EC50,"MT-3, Colon",23.9 µM
same,GI50,"MT-3, Colon",23.8 µM
same,IC50,"MT-3, Colon",23.9 µM
same,EC50,"MV4-11, MV-4-11, Leukemia",3.81 µM
same,GI50,"MV4-11, MV-4-11, Leukemia",3.8 µM
same,IC50,"MV4-11, MV-4-11, Leukemia",3.81 µM
same,EC50,"MX1, Leukemia",2.46 µM
same,GI50,"MX1, Leukemia",2.46 µM
same,IC50,"MX1, Leukemia",2.46 µM
same,EC50,[7],20.6 µM
same,GI50,[7],17.8 µM
same,IC50,[7],20.6 µM
same,EC50,"MeWo, Skin (Melanoma)",9.66 µM
same,GI50,"MeWo, Skin (Melanoma)",9.51 µM
same,IC50,"MeWo, Skin (Melanoma)",9.66 µM
same,EC50,"NALM-6, NALM-6, Leukemia",2.61 µM
same,GI50,"NALM-6, NALM-6, Leukemia",2.61 µM
same,IC50,"NALM-6, NALM-6, Leukemia",2.61 µM
same,EC50,"NAMALWA, Lymphoma",3.91 µM
same,GI50,"NAMALWA, Lymphoma",3.9 µM
same,IC50,"NAMALWA, Lymphoma",3.91 µM
same,EC50,"NCI-H69, NCI-H69, Lung - SCLC",15.9 µM
same,GI50,"NCI-H69, NCI-H69, Lung - SCLC",15.1 µM
same,IC50,"NCI-H69, NCI-H69, Lung - SCLC",15.9 µM
